Among the data in ChEMBL document CHEMBL1130588, “Biaryl acids: novel non-nucleoside inhibitors of HIV reverse transcriptase types 1 and 2” (Bioorg Med Chem Lett, 1998) are IC50 values, retold here.

Molecules are shown by their SMILES.

One assay addresses T1, Human immunodeficiency virus type 1 reverse transcriptase (Human immunodeficiency virus 1, UniProt Q72547). Kind of assay: Evaluated for inhibition of HIV-1 reverse transcriptase.
`N#Cc1ccc(NC(=O)CCCCC(=O)Nc2ccc(C#N)cc2C(=O)O)c(C(=O)O)c1`: the IC50 – broadly, the point on the concentration scale where inhibition reaches its midpoint – is > 100 µM.
The compound `O=C(CCCCC(=O)Nc1ccc(Cl)cc1C(=O)O)Nc1ccc(Cl)cc1C(=O)O` had a concentration for half-maximal inhibition (IC50) of 8.7 µM.
Consider `O=C(CCCCC(=O)Nc1ccc(F)cc1C(=O)O)Nc1ccc(F)cc1C(=O)O`, for which the IC50 is > 120 µM.
On the same count and under the same terms, for `O=C(CCCCC(=O)Nc1ccc(Br)cc1C(=O)O)Nc1ccc(Br)cc1` the value was 15 µM; for `O=C(CCCCC(=O)Nc1ccc(Br)cc1C(=O)O)Nc1ccc(Br)cc1C(=O)O`, 3.1 µM; for `O=C(CCCC(=O)Nc1ccc(Cl)cc1C(=O)O)Nc1ccc(Cl)cc1C(=O)O`, 8.7 µM.
On the same count and under the same terms, for `O=C(CCCCC(=O)Nc1ccccc1C(=O)O)Nc1ccccc1C(=O)O` the value was 21 µM.
For `CSc1ccc(NC(=O)CCCCC(=O)Nc2ccc(SC)cc2C(=O)O)c(C(=O)O)c1`, the IC50 was 19 µM.
Compound `O=C(Nc1ccc(Br)cc1C(=O)O)c1ccc(C(=O)Nc2ccc(Br)cc2C(=O)O)nc1` returned an IC50 of 35 µM.
Compound `O=C(Nc1ccc(Br)cc1C(=O)O)c1ccnc(C(=O)Nc2ccc(Br)cc2C(=O)O)c1` displayed an IC50 of 66 µM.
On the same count and under the same terms, then `COc1ccc(NC(=O)CCCCC(=O)Nc2ccc(OC)cc2C(=O)O)c(C(=O)O)c1`, with 10.6 µM; and `Cc1ccc(NC(=O)CCCCC(=O)Nc2ccc(C)cc2C(=O)O)c(C(=O)O)c1`, with 14 µM; and `O=C(CCCCCC(=O)Nc1ccc(Cl)cc1C(=O)O)Nc1ccc(Cl)cc1C(=O)O`, with 9 µM.

In the next assay the target is T1, Human immunodeficiency virus type 1 reverse transcriptase. Kind of assay: Evaluated for inhibition of HIV-1 reverse transcriptase; Inactive means <50% inhibition at 100 ug/mL concentration.
For `O=C(Nc1ccc(Br)cc1C(=O)O)c1cccc(C(=O)Nc2ccc(Br)cc2C(=O)O)n1`, the IC50 result is “Not Active”.
With `O=C(Nc1ccc(Br)cc1C(=O)O)c1cncc(C(=O)Nc2ccc(Br)cc2C(=O)O)c1`, the IC50 entry was “Not Active”.
Still for that read-out and setting: for `O=C(Cc1cccc(CC(=O)Nc2ccc(Br)cc2C(=O)O)c1)Nc1ccc(Br)cc1C(=O)O` the value was “Not Active”; for `O=C(CCCCC(=O)Nc1ccccc1C(=O)O)Nc1ccccc1`, “Not Active”.
Still for that read-out and setting: for `O=C(CCCCC(=O)Nc1ccc(Br)cc1C(=O)O)Nc1ccccc1` the value was “Not Active”.
With `O=C(CCCCC(=O)Nc1ccccc1C(=O)O)Nc1ccc(Br)cc1`, the IC50 entry is on record as “Not Active”.
Still for that read-out and setting: for `O=C(CCCCC(=O)Nc1ccc(Br)cc1)Nc1ccccc1` the value was “Not Active”; for `O=C(COCC(=O)Nc1ccc(Br)cc1C(=O)O)Nc1ccc(Br)cc1C(=O)O`, “Not Active”.
On to `CN(CC(=O)Nc1ccc(Br)cc1C(=O)O)CC(=O)Nc1ccc(Br)cc1C(=O)O`, for which the IC50 entry is “Not Active”.

For the next assay the target is unchanged. Kind of assay: Compound was evaluated for inhibition of HIV-1 reverse transcriptase using rC.dG and [3H]dGTP as substrates at 100 ug/mL.
Take `O=C(CCCCCCC(=O)Nc1ccc(Br)cc1C(=O)O)Nc1ccc(Br)cc1C(=O)O`: the half-maximal inhibitory concentration (IC50) turned out to be 18 µM.

For another assay the target is unchanged. Kind of assay: Compound was evaluated for inhibition of HIV-1 reverse transcriptase using rC.dG and [3H]dGTP as substrates at 100 ug/ml.
Regarding `CC(=O)Nc1ccc(NC(=O)CCCCC(=O)Nc2ccc(NC(C)=O)cc2C(=O)O)c(C(=O)O)c1`, the IC50 is > 100 µM.
